Values of other authors in patent US20240228667A9, “Methods for Treating Multiple Myeloma” (Celgene Corporation, priority 2021, published 2024).

System: acute myeloid leukemia (AML) at relapse
Conditions: CT-011 administered alone

CT-011: anti-PD-1 antibody, a humanized antibody
response in treating acute myeloid leukemia (AML) at relapse: failed to show response
